Test results from paper PMC4316997, “Complex Structure and Biochemical Characterization of the Staphylococcus aureus Cyclic Diadenylate Monophosphate (c-di-AMP)-binding Protein PstA, the Founding Member of a New Signal Transduction Protein Family” (The Journal of Biological Chemistry, 2014).

Assays:
[1] = biological target: N-terminally His-tagged PstA protein from S. aureus (His-PstASA) (S. aureus); test: SEC-MALS; 100 uM purified His-PstASA in 50 mM Tris-HCl pH 7.5, 200 mM NaCl, 5% glycerol; Superdex 10/300 column coupled to a multiangle laser light scattering detector
[2] = biological target: T1, PstA (PstASA, His-PstASA) (Staphylococcus aureus, UniProt A0A0H2XH20, N41A); test: biochemical
T1 construct: gene SAUSA300_0460

[3] = biological target: T2, PstA (PstASA, His-PstASA) (Staphylococcus aureus, UniProt A0A0H2XH20, D12A); test: biochemical
T2 construct: gene SAUSA300_0460

[4] = biological target: T3, PstA (PstASA, His-PstASA) (Staphylococcus aureus, UniProt A0A0H2XH20, T43A); test: biochemical
T3 construct: gene SAUSA300_0460

[5] = biological target: T4, PstA (PstASA, His-PstASA) (Staphylococcus aureus, UniProt A0A0H2XH20, R67A); test: biochemical
T4 construct: gene SAUSA300_0460

[6] = biological target: T5, PstA (PstASA, His-PstASA) (Staphylococcus aureus, UniProt A0A0H2XH20, K2A); test: biochemical
T5 construct: gene SAUSA300_0460

[7] = biological target: T6, PstA (PstASA, His-PstASA) (Staphylococcus aureus, UniProt A0A0H2XH20); test: DRaCALA, purified protein, […]-labelled ligand on nitrocellulose; assay type: binding
T6 construct: gene SAUSA300_0460; sites at monomer-monomer interfaces

Molecule | stoichiometry N [1] | Kd [2] [nM] | Kd [3] [nM] | Kd [4] [nM] | Kd [5] [nM] | Kd [6] [nM] | Kd [7] [nM]
N-terminally His-tagged PstA protein from S. aureus (His-PstASA) (natural protein) | 3 | – | – | – | – | – | –
Nc1ncnc2c1ncn2[C@@H]1O[C@@H]2COP(=O)(O)O[C@H]3[C@@H](O)[C@H](n4cnc5c(N)ncnc54)O[C@@H]3COP(=O)(O)O[C@H]2[C@H]1O [c-di-AMP] | – | 9600 ± 2300 | 320 ± 50 | 1800 ± 200 | 480 ± 40 | 340 ± 40 | 370 ± 30
